{"source": "patent US20130225627A1", "about": "“DEXTROMETHORPHAN ANTITUSSIVE COMPOSITIONS” (Trinity Laboratories, Inc., priority 2010, published 2013)", "key": {"rats [1]": {"system": "rats", "conditions": "cited from earlier work"}, "females": {"system": "females", "conditions": "cited from earlier work; for mean plasma bromide concentration at the end of the treatment: three menstrual cycles"}, "[2]": {"conditions": "after oral ingestion; cited from earlier work"}, "[3]": {"conditions": "rats, cited from earlier work"}, "[4]": {"conditions": "Ames test; cited from earlier work"}, "[5]": {"conditions": "in vivo; cited from earlier work"}, "rats [6]": {"system": "rats"}, "[7]": {"conditions": "cited from earlier work"}, "[8]": {"experiment": "Solubility of dextromethorphan hydrochloride in water", "conditions": "at the pH of the compositions of the present invention", "excerpt": "However, the compositions of the invention may contain sufficient levels of one or more cosolvents. Preferred cosolvents for this purpose include ethanol, propylene glycol, polyethylene glycol, glycerin, and sorbitol; more preferred cosolvents include ethanol, propylene glycol and glycerin."}, "healthy volunteers": {"system": "healthy volunteers", "conditions": "cited from earlier work"}, "rats [9]": {"system": "rats", "conditions": "cited from earlier work", "remark": "listed apart in the source"}, "thyroid gland": {"system": "thyroid gland", "conditions": "rats, diets containing 4800 or 19200 ppm NaBr; as soon as 3 days, constant during 12 weeks; cited from earlier work"}}, "note": "Counter-ions that a name gives are not always drawn. Like-named read-outs stand apart in the source and are kept apart here.", "data": [{"smiles": "Br", "note": "[Bromide]", "values": [{"measurement": "central nervous system effects", "setting": "rats [1]; short-term toxicity studies, higher doses", "value": "motor incoordination of the hind legs and inhibition of grooming"}, {"measurement": "mean plasma bromide concentration at the end of the treatment", "setting": "females; 4 mg Br/kg/day", "value": 3.22, "unit": "mmol/L"}, {"measurement": "mean plasma bromide concentration at the end of the treatment", "setting": "females; 9 mg Br/kg/day", "value": 7.99, "unit": "mmol/L"}, {"measurement": "quantitative analysis of the electroencephalogram (EEG)", "setting": "females; 9 mg Br/kg/day", "value": "only a marginal effect"}, {"measurement": "clinical observation: effects on the thyroid or on the central nervous system", "setting": "females; 4 and 9 mg Br/kg/day", "value": "did not show effects"}, {"measurement": "serum thyroxine, free thyroxine, triiodothyronine, thyrotropin and thyroxine-binding globulin", "setting": "females; 4 and 9 mg Br/kg/day", "value": "In none of the three groups were significant changes observed"}, {"measurement": "absorption in the gastrointestinal tract", "setting": "[2]", "value": "rapidly and completely absorbed"}, {"measurement": "half-life", "setting": "[3]; chloride-free diet", "value": 25, "unit": "days"}, {"measurement": "half-life", "setting": "[3]; normal", "value": "three"}, {"measurement": "mutagenicity", "setting": "[4]", "value": "not mutagenic"}, {"measurement": "half life", "setting": "[5]", "value": "9 to 12", "unit": "days"}, {"measurement": "No Observable Adverse Effect Level (NOAEL), effects on the thyroid", "setting": "rats [6]; equivalent daily dose", "value": 12, "unit": "mg bromide/kg/day"}, {"measurement": "No Observable Adverse Effect Level (NOAEL), effects on the thyroid", "setting": "rats [6]; expressed as bromide", "value": 240, "unit": "ppm"}]}, {"smiles": "COc1ccc2c(c1)[C@]13CCCC[C@@H]1[C@H](C2)N(C)CC3", "note": "[Dextromethorphan Hydrobromide]", "values": [{"measurement": "solubility", "setting": "[7]; at 20° C.", "value": "about 1.5 weight percent"}, {"measurement": "solubility", "setting": "[7]; at 85° C.", "value": "about 25 wt. %"}]}, {"smiles": "COc1ccc2c(c1)[C@]13CCCC[C@@H]1[C@H](C2)N(C)CC3", "note": "[Dextromethorphan hydrochloride]", "values": [{"measurement": "solubility in water", "setting": "[8]", "value": "highly soluble"}]}, {"smiles": "[Br-].[Na+]", "note": "[sodium bromide]", "values": [{"measurement": "neurophysiological data (EEG and visual evoked response)", "setting": "healthy volunteers; 9 mg Br/kg/day, within normal limits", "value": "shifts in the power of various spectral bands and a shift in mean frequency"}, {"measurement": "medical history, physical examination, haematology, clinical chemistry and urine analyses", "setting": "healthy volunteers; 4 or 9 mg Br/kg/day, start versus end of study", "value": "Except for incidental nausea, no changes were observed"}, {"measurement": "serum free thyroxine, thyroxine-binding globulin, cortisol, oestradiol, progesterone, testosterone, thyrotropin, prolactin, LH, FSH", "setting": "healthy volunteers; 4 or 9 mg Br/kg/day", "value": "No changes were observed"}, {"measurement": "mean plasma bromide concentration at the end of treatment", "setting": "healthy volunteers; females, 4 mg Br/kg/day oral, three full cycles", "value": 3.05, "unit": "mmol/L"}, {"measurement": "mean plasma bromide concentration at the end of treatment", "setting": "healthy volunteers; females, 9 mg Br/kg/day oral, three full cycles", "value": 4.93, "unit": "mmol/L"}, {"measurement": "serum thyroxine and triiodothyronine at the end of the study compared to pre-administration values", "setting": "healthy volunteers; females, 9 mg Br/kg/day, all concentrations within normal limits", "value": "significant increase"}, {"measurement": "mean plasma bromide concentration at the end of treatment", "setting": "healthy volunteers; males, 4 mg Br/kg/day oral, 12 weeks", "value": 2.14, "unit": "millimoles/liter"}, {"measurement": "mean plasma bromide concentration at the end of treatment", "setting": "healthy volunteers; males, 9 mg Br/kg/day oral, 12 weeks", "value": 4.30, "unit": "millimoles/liter"}, {"measurement": "No Observable Adverse Effect Level (NOAEL), effects on the thyroid", "setting": "rats [1]; expressed as sodium bromide", "value": 300, "unit": "ppm"}, {"measurement": "levels of thyroxine, growth hormone, testosterone and corticosterone", "setting": "rats [1]; special studies", "value": "decreased levels"}, {"measurement": "thyroid-stimulating hormone (TSH) and insulin", "setting": "rats [1]; special studies", "value": "increased"}, {"measurement": "effects on reproduction", "setting": "rats [9]; 1200 ppm", "value": "no effects on reproduction were observed"}, {"measurement": "fertility and viability of the offspring", "setting": "rats [9]; 4800 ppm", "value": "reduced"}, {"measurement": "fertility", "setting": "rats [9]; 19200 ppm sodium bromide, reversible", "value": "complete infertility"}, {"measurement": "thyroxine concentrations", "setting": "thyroid gland", "value": "significantly decreased"}]}]}
